# Literature values in US9028802B2, “Method of differentially diagnosing different types of dementia” (Koninklijke Philips Electronics N.V., priority 2007, dated 2015).
# Molecular target: T1, Dopamine Transporter (DAT) (Homo sapiens, UniProt Q01959)
# T1 construct: those areas of the brain in which Dopamine Transporters (DAT) are localized, such as the nigrostriatum; from tissue; host or cells: brain (nigrostriatum) of the living subject, in vivo SPECT
# Conditions: SPECT tracer, time point x2 after administration; 'typically'
# T1 sequence (Q01959 whole entry): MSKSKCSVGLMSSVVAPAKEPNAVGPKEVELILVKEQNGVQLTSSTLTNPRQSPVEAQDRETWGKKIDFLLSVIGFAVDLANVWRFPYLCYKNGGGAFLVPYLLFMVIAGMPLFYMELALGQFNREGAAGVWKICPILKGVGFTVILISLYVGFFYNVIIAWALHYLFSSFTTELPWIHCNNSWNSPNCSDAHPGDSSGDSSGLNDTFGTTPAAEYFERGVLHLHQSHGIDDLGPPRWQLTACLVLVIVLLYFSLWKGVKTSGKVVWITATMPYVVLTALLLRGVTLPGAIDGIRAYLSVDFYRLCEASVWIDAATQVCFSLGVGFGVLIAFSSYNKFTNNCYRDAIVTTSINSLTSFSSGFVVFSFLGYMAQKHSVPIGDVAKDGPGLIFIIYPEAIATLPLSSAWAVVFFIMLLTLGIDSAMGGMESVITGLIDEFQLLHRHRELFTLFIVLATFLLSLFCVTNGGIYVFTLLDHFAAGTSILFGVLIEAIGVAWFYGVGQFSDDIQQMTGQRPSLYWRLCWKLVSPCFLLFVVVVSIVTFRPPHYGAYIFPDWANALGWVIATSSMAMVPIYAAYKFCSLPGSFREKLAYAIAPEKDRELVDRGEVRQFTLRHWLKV
structure (smiles),measurement,value
COC(=O)C1C2CCC(C[C@@H]1c1ccc(I)cc1)N2CCCF (stereo partly shown) [Datscan],time period after which association with Dopamine Transporters is observed,three to four
